Legend:
[1] = In vivo pharmacokinetics of KY19382; parameters: species or system Sprague-Dawley (SD) rats; conditions: rat
Experimental: In vivo pharmacokinetics of KY19382. Animal studies were approved by the Institutional Animal Care and use committee at KRIBB. Briefly, specific pathogen-free male Sprague-Dawley (SD) rats (10 weeks old, body weight 298-315 g), purchased from Koatech Co. (Kyeonggi, Republic of Korea), were given a single dose of KY19382 intravenously (iv, 1 mg/kg, n=3) or intraperitoneal (ip, 5 mg/kg, n=3). […] A 100 μl aliquot of each plasma sample was prepared, and three volumes of ice-cold acetonitrile containing carbamazepine (internal standard) were added. The mixture was centrifuged at 910 g for 10 min, and the supernatant was subjected to LC-MS/MS analysis. Pharmacokinetic parameters were calculated by standard noncompartmental analysis of plasma concentration-time profiles using Kinetica 4.4.1 (Thermo Fisher Scientific, Inc., Woburn, Mass., USA). The areas under the plasma concentration-time curves (AUC) were calculated by the linear-trapezoidal method. Systemic plasma clearance (CLP) was calculated as follows: CLP=dose/AUCinf. […] Volume of distribution at steady state (VSS) was calculated as follows: VSS=dose×AUMCinf/(AUCinf)2, where AUMCinf is the area under the first moment of the plasma concentration-time curve extrapolated to infinity Bioavailability (F) was calculated as follows: F (%)=(AUCip/AUCiv)(doseiv/doseip)×100.

[2] = Toxicity observation during 10 weeks of treatment in mice; assay type: in vivo
Experimental: Animals. Cxxc5^−/− mice were established in a previous study. See e.g., Kim H. Y. et al. (2015), CXXC5 is a negative feedback regulator of the Wnt/beta-catenin pathway involved in osteoblast differentiation. CELL DEATH DIFFER 22: 912-920. To manipulate growth plate senescence by estrogen, 3-week-old […] Cxxc5^−/− male mice received weekly intramuscular (i.m.) injections of either 70 μg/kg estradiol (E2) cypionate (Sigma-Aldrich) or vehicle (cottonseed oil) for 3 weeks. To investigate the effects of KY19382 treatment on longitudinal bone growth, C57BL/6 male mice were purchased from KOATECH (Gyeonggido, Korea). KY19382 (0.1 ing/kg) was administered daily by intraperitoneal (i.p.) injection to 3- and 7-week-old mice for 2 weeks or to 3-week-old mice for 10 weeks. For BrdU labeling experiments, mice were i.p. injected with 50 mg/kg BrdU (Sigma-Aldrich) before 24 hours to sacrifice. […]
Radiographic and histochemical analyses. […] For fluorescence staining, the sections were incubated with primary antibody at 4° C. overnight, followed by incubation with anti-mouse Alexa Fluor 488 (ThermoFisher Scientific, A11008; 1:200) or anti-rabbit Alex Fluor 555 (ThermoFisher Scientific, A21428; 1:200) secondary antibodies at room temperature for 1 hour. […]

[3] = system: TOPFlash Wnt reporter activity; assay: TOPFlash Wnt reporter assay in HEK293-TOP cells; assay type: cell-based; conditions: 18 hours, FIG. 4D
Experimental: Reporter assay. HEK293-TOP cells were seeded into each well of a 24-well plate. The cells were treated with individual compounds at indicated concentration and cultured for 18 hours. The cells were then harvested and lysed in 60 μl of Reporter Lysis Buffer (Promega, Madison, Wis.) according to the manufacturer's instructions. After centrifugation, 20 μl of the supernatant was used to measure luciferase activity. Relative luciferase activities were normalized to that of the DMSO-treated control.

[4] = male, Sprague-Dawley, plasma, IP, 5 mg/kg, mean
[5] = male, Sprague-Dawley, plasma, IV, 1 mg/kg, mean

With CO/N=C1/C(=C2/C(=O)Nc3cc(Cl)c(Cl)cc32)Nc2ccccc21 [KY19382, 5,6-dichloroindirubin-3′-methoxime] the “CL” value ([1]; IP, 5 mg/kg, mean) was 7.83 mL/min/kg, the bioavailability ([1]; male, Sprague-Dawley, plasma, intraperitoneal, IP, 5 mg/kg vs IV, 1 mg/kg) was 16.7% and the AUC(0-t) [1, 4] was 6560 ng·h/mL. The Cmax [1, 4] was 463 ng/mL, the Tmax [1, 4] was 1 h and the half-life [1, 4] was 16.2 h. It also gave an AUC(0-t) [1, 5] of 7830 ng·h/mL, a clearance [1, 5] of 2 mL/min/kg and a half-life [1, 5] of 3.33 h. The Vd ([1]; male, Sprague-Dawley, plasma, IV, 1 mg/kg, mean, read-out: Vss) was 0.33 L/kg, the “histological abnormalities in articular cartilage and liver tissues” value ([2]; 0.1 mg/kg daily for 10 weeks) was “no histological abnormalities” and the weight during treatment ([2]; 0.1 mg/kg daily, 10 weeks of treatment, vs vehicle) was “no difference”. The “TOPFlash Wnt reporter activity” value [3] was “strong enhancement”.

Reference: patent publication US20210323918A1, “COMPOSITIONS AND METHODS FOR SUPPRESSING AND/OR TREATING A GROWTH RELATED DISEASE AND/OR A CLINICAL CONDITION THEREOF” (CK Biotech Inc., priority 2018, published 2021)
